Data as given in the NIST ThermoML archive (doi:10.1016/j.fluid.2018.05.004).

Settings: Crystal, Transpiration method

[CH]1C=CC=C1.[CH]1C=CC=C1.[Fe] [ferrocene]
Settings	vapor or sublimation pressure [kPa]
361.2 K	0.172
363.2 K	0.198
366.5 K	0.244
368.2 K	0.263
371.7 K	0.332
374.4 K	0.398
378.3 K	0.494
385.7 K	0.789
388.6 K	0.907
392.1 K	1.13
394 K	1.23
401.8 K	1.881
410.1 K	2.869
417.3 K	4.29
419.4 K	4.338
429.4 K	7.204
430.7 K	7.571
434.6 K	9.559
435.2 K	9.195
